Measurements: patent US8410089B2, “Fused heterocyclic ring compound” (Takeda Pharmaceutical Company Limited, priority 2009, dated 2013)

These compounds were tested against T1, human GPR119 (Homo sapiens, UniProt Q8TDV5) (assay: Human GPR119 agonist activity with increase of intracellular cAMP concentration as index (CRE-luciferase reporter assay in hGPR119/CRE-luc/CHO(dhfr-) cells)). Conditions: 1 μM test compound, 2 hr incubation; luciferase activity with 10 μM N-[4-(methylsulfonyl)phenyl]-5-nitro-6-{4-[4-(trifluoromethoxy)phenoxy]piperidin-1-yl}pyrimidin-4-amine = 100%, DMSO = 0%.
T1 construct: expressed in transfected cells
T1 sequence (Q8TDV5 1-335): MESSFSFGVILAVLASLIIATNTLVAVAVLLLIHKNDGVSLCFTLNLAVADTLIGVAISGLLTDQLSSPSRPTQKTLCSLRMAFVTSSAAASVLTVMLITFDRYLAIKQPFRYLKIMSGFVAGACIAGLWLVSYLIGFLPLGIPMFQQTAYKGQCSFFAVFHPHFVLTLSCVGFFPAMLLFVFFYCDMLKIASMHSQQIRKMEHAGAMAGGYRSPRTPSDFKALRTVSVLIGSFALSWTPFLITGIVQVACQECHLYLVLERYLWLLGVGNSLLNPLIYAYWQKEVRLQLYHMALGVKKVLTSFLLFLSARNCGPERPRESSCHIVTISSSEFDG
Format: cell-based
Procedure: Evaluation of Human GPR119 Agonist Activity with Increase of Intracellular Camp Concentration as Index
(1) Construction of Expression Plasmid of Human GPR119 Gene
Using High Fidelity RNA PCR Kit (Takara Bio Inc.), human GPR119 gene was cloned by PCR using cDNA library synthesized from human brain mRNA (Clontech) as a template and synthetic DNA having the following sequence. Primer 1 and Primer 2 were is prepared by adding cleavage sites for Sal I and Nhe I based on the base sequence information of human GPR119 gene.
PCR was performed using Pyrobest DNA polymerase (Takara Bio Inc.). The obtained PCR product was cloned to pUC118 (Takara Bio Inc.), and the base sequence was […] and digested with restriction enzymes Sal I, Nhe I. The obtained DNA fragment was inserted into an animal cell expression vector pAKKO-111H (plasmid same as pAKKO-1.111H described in Biochem. Biophys. Acta, Hinuma, S. et al., 1219, 251-259 (1994)) similarly digested with Sal I, Nhe I, whereby an expression plasmid pAKKO-111H/hGPR119 was prepared.
(2) Construction of Reporter Plasmid
Zeocin resistance gene was cloned by PCR using plasmid pcDNA3.1/Zeo (Invitrogen) as a template, synthetic DNA having the following sequences wherein cleavage sites for restriction enzymes Sal I and BamH I are added to before and after a region containing SV40 Ori and a region containing SV40pA, which are located at the upstream and downstream of Zeocin resistance gene of this plasmid, as a primer set, and KOD polymerase (TOYOBO).
The obtained PCR product was inserted into pCR-BluntII (Invitrogen). A fragment containing a Zeocine resistance gene obtained by digesting the plasmid with restriction enzymes Sal I and BamH I was inserted into plasmid pGL3(R2.2)-Basic Vector (promega) similarly digested with Sal I and Bam HI to give Zeocin resistance plasmid pGL3(R2.2)/Zeocin-Basic Vector.
A reporter plasmid containing 4 cAMP responsive elements (CRE) connected in tandem was prepared using the following 5′-terminal phosphorylated synthetic DNA.
First, a DNA fragment containing a CRE sequence obtained by annealing CRE-Upper and CRE-Lower and elongating with KOD polymerase was inserted into pCR-BluntII to give pCR-BluntII-CRE. A fragment cleaved from pCR-BluntII-CRE with restriction enzymes Kpn I and Hind III was inserted into pGL3(R2.2)/Zeocin-Basic Vector similarly digested with Kpn I and Hind III to give reporter plasmid pGL3(R2.2)/Zeocin-CRE-luc.
(3) Introduction of Human GPR119 Gene and Reporter Gene into CHO(dhfr-) Cells and Acquirement of Expressing Cell
CHO(dhfr-) cells in MEMα (minimum essential medium alpha) (Nikken bio medical laboratory) medium containing 10% fetal bovine serum, 100 U/mL penicillin and 100 μg/mL streptomycin (Invitrogen) were detached by a treatment with trypsin-EDTA (ethylenediaminetetraacetic acid) (Invitrogen), the cells were washed with PBS (Phosphate-buffered saline), centrifuged (1000 rpm, 5 min) and suspended in PBS at a cell density of 1×10^7 cells/mL. Then, DNA was introduced into the cell by a gene pulser (Bio-Rad) under the following conditions. That is, 1×10^7 cells, plasmid pGL3(R2.2)/Zeocin-CRE-luc (15 μg), which was obtained in (2) and linearized with BssH II, and pAKKO-111H (5 μg) were added in a 0.4 cm gap cuvette, and the mixture was electroporated at voltage […], capacitance 950 μF. The cells were placed in the above-mentioned medium, cultured for 24 hr, and the cells were detached and centrifuged. The cells were diluted to 250 cells/well, plated in a 96 well plate (Corning) and cultivated in a CO2 incubator at 37° C. to give a transformant. Then, forskolin was added to the obtained transformant and a strain (CRE-luc/CHO(dhfr-) cell) that induces luciferase expression was selected. […]

SMILES | GPR119 agonist activity (%) at 1 μM concentration
Cc1cnc(N2CCC(N(c3cc(N4CCc5cc(S(C)(=O)=O)ccc54)ncn3)C(F)(F)F)CC2)nc1 [Example 73, N-[1-(5-methylpyrimidin-2-yl)piperidin-4-yl]-6-[5-(methylsulfonyl)-2,3-dihydro-1H-indol-1-yl]-N-(trifluoromethyl)pyrimidin-4-amine] | 88%
CCc1noc(N2CCC(Oc3cc(N4CCc5cc(S(C)(=O)=O)ccc54)ncn3)CC2)n1 [Example 41, 1-(6-{[1-(3-ethyl-1,2,4-oxadiazol-5-yl)piperidin-4-yl]oxy}pyrimidin-4-yl)-5-(methylsulfonyl)-2,3-dihydro-1H-indole] | 85%
CC(C)c1noc(N2CCC(Oc3cc(N4CCc5cc(C(=O)N(C)CCO)ccc54)ncn3)CC2)n1 [Example 30, N-(2-hydroxyethyl)-N-methyl-1-[6-({1-[3-(1-methylethyl)-1,2,4-oxadiazol-5-yl]piperidin-4-yl}oxy)pyrimidin-4-yl]-2,3-dihydro-1H-indole-5-carboxamide] | 78%
CC(C)(C)SC(=O)N1CCC(Oc2cc(N3CCc4cc(S(C)(=O)=O)ccc43)ncn2)CC1 [Example 36, S-tert-butyl 4-({6-[5-(methylsulfonyl)-2,3-dihydro-1H-indol-1-yl]pyrimidin-4-yl}oxy)piperidine-1-carbothioate] | 87%
CC(C)SC(=O)N1CCC(Oc2cc(N3CCc4cc(NC(=O)CO)ccc43)ncn2)CC1 [Example 54, S-(1-methylethyl) 4-[(6-{5-[(hydroxyacetyl)amino]-2,3-dihydro-1H-indol-1-yl}pyrimidin-4-yl)oxy]piperidine-1-carbothioate] | 82%
CC(C)SC(=O)N1CCC(Oc2cc(N3CCc4cc(N5CCCC5=O)ccc43)ncn2)CC1 [Example 45, S-(1-methylethyl) 4-({6-[5-(2-oxopyrrolidin-1-yl)-2,3-dihydro-1H-indol-1-yl]pyrimidin-4-yl}oxy)piperidine-1-carbothioate] | 75%
CC(C)OC(=O)N1CCC(N(c2cc(N3CCc4cc(S(C)(=O)=O)ccc43)ncn2)C(F)(F)F)CC1 [Example 70, 1-methylethyl 4-[{6-[5-(methylsulfonyl)-2,3-dihydro-1H-indol-1-yl]pyrimidin-4-yl}(trifluoromethyl)amino]piperidine-1-carboxylate] | 83%
CC(C)SC(=O)N1CCC(Oc2cc(N3CCc4cc(NC(=O)C5CCCO5)ccc43)ncn2)CC1 [Example 50, S-(1-methylethyl)4-{[6-(5-{[(2R)-tetrahydrofuran-2-ylcarbonyl]amino}-2,3-dihydro-1H-indol-1-yl)pyrimidin-4-yl]oxy}piperidine-1-carbothioate] | 85%
CC(C)SC(=O)N1CCC(Oc2cc(N3CCc4cc(S(C)(=O)=O)cc(F)c43)ncn2)CC1 [Example 62, S-(1-methylethyl) 4-({6-[7-fluoro-5-(methylsulfonyl)-2,3-dihydro-1H-indol-1-yl]pyrimidin-4-yl}oxy)piperidine-1-carbothioate] | 83%
CC(C)OC(=O)N1CCC(Oc2cc(N3CCc4cc(S(C)(=O)=O)ccc43)ncn2)CC1 [Example 18, 1-methylethyl 4-({6-[5-(methylsulfonyl)-2,3-dihydro-1H-indol-1-yl]pyrimidin-4-yl}oxy)piperidine-1-carboxylate] | 74%
CC(C)OC(=O)N1CCC(Oc2cc(N3CCc4cc(NC(=O)CO)ccc43)ncn2)CC1 [Example 55, isopropyl 4-[(6-{5-[(hydroxyacetyl)amino]-2,3-dihydro-1H-indol-1-yl}pyrimidin-4-yl)oxy]piperidine-1-carboxylate] | 84%
COc1cnc(N2CCC(N(c3cc(N4CCc5cc(S(C)(=O)=O)ccc54)ncn3)C(F)(F)F)CC2)nc1 [Example 72, N-[1-(5-methoxypyrimidin-2-yl)piperidin-4-yl]-6-[5-(methylsulfonyl)-2,3-dihydro-1H-indol-1-yl]-N-(trifluoromethyl)pyrimidin-4-amine] | 77%
CC(C)(C)OC(=O)N1CC(Cn2ccc3c(N4CCc5cc(S(C)(=O)=O)ccc54)ncnc32)C1 [Example 14, tert-butyl 3-({4-[5-(methylsulfonyl)-2,3-dihydro-1H-indol-1-yl]-7H-pyrrolo[2,3-d]pyrimidin-7-yl}methyl)azetidine-1-carboxylate] | 82%
CC(C)SC(=O)N1CCC(N(c2cc(N3CCc4cc(S(C)(=O)=O)ccc43)ncn2)C(F)(F)F)CC1 [Example 71, S-(1-methylethyl) 4-[{6-[5-(methylsulfonyl)-2,3-dihydro-1H-indol-1-yl]pyrimidin-4-yl}(trifluoromethyl)amino]piperidine-1-carbothioate] | 82%
COCC(=O)Nc1ccc2c(c1)CCN2c1cc(OC2CCN(C(=O)OC(C)C)CC2)ncn1 [Example 59, isopropyl 4-[(6-{5-[(methoxyacetyl)amino]-2,3-dihydro-1H-indol-1-yl}pyrimidin-4-yl)oxy]piperidine-1-carboxylate] | 77%
COCC(=O)Nc1ccc2c(c1)CCN2c1cc(OC2CCN(C(=O)SC(C)C)CC2)ncn1 [Example 60, S-(1-methylethyl) 4-[(6-{5-[(methoxyacetyl)amino]-2,3-dihydro-1H-indol-1-yl}pyrimidin-4-yl)oxy]piperidine-1-carbothioate] | 81%
CSC(=O)N1CCC(Oc2cc(N3CCc4cc(S(C)(=O)=O)ccc43)ncn2)CC1 [Example 61, S-methyl 4-({6-[5-(methylsulfonyl)-2,3-dihydro-1H-indol-1-yl]pyrimidin-4-yl}oxy)piperidine-1-carbothioate] | 85%
CC(C)OC(=O)N1CCC(Oc2cc(N3CCc4cc(NC(=O)[C@H]5CCCO5)ccc43)ncn2)CC1 [Example 51, isopropyl 4-{[6-(5-{[(2R)-tetrahydrofuran-2-ylcarbonyl]amino}-2,3-dihydro-1H-indol-1-yl)pyrimidin-4-yl]oxy}piperidine-1-carboxylate] | 83%
CC(C)(C)OC(=O)N1CCCC(n2ccc3c(N4CCc5cc(S(C)(=O)=O)ccc54)ncnc32)CC1 (stereo not shown) [Example 16, tert-butyl 4-{4-[5-(methylsulfonyl)-2,3-dihydro-1H-indol-1-yl]-7H-pyrrolo[2,3-d]pyrimidin-7-yl}azepane-1-carboxylate] | 77%
